In patent US6391917B1, “Dialkyl ureas as calcitonin mimetics” (ZymoGenetics, Inc., priority 1998, dated 2002):

Legend:
Format in all cases: cell-based
[1] = molecular target: T1, Human calcitonin receptor (Homo sapiens, UniProt P30988); test: CRE-luciferase assay for calcitonin mimetics (Hollex-1)
T1 construct: expressed in transfected cells; host or cells: BHK-570 (Hollex-1)
T1 sequence (P30988 25-474): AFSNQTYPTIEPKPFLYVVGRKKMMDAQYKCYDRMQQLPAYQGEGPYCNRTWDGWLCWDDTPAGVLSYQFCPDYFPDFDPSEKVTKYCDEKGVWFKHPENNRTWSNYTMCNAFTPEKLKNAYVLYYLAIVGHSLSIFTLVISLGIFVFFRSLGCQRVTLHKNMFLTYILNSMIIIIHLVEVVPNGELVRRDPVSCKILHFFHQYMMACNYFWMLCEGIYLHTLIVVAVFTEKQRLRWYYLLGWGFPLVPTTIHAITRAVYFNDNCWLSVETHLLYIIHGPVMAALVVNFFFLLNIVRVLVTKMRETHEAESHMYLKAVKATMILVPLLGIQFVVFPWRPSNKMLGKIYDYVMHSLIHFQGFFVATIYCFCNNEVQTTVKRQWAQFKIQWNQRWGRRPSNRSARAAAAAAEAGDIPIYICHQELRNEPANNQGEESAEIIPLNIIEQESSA
Method: CRE-Luciferase Assay Method for Calcitonin Mimetics
Human calcitonin receptor-positive and receptor-negative BHK-570 (Baby Hamster Kidney) cell lines were maintained by serial passage in growth medium (DMEM supplemented with 10% heat-inactivated fetal calf serum (HI-FCS), 2 mM L-glutamine, 1 mM sodium pyruvate, 250 nM MTX, and 1 mg/mL G418). On the day prior to assay, cells were trypsinized, adjusted to 2.5×10^5 cells/ml in growth medium, plated in opaque white Dynatech Microlite microtiter tissue culture plates at 50 μL/well, and grown overnight to confluence (37° C., 5% CO2 atmosphere).
Test substances were prepared in DMSO or 10% DMF at 100 times the final desired assay concentration. […] Controls were included on each plate: untreated wells (basal), […], and 100 nM human calcitonin. DMSO or DMF was included in control wells at a concentration equal to that in test samples (not to exceed a final assay concentration of 2% DMSO or 0.5% DMF, with a preferred maximum of 1% DMSO or 0.1% DMF).
Plates were incubated for 3 to 8 hours (4 hours preferred) at 37° C. in an atmosphere of 5% CO2. Following induction, luciferase activity was measured using a Promega luciferase assay kit (E1500) according to the assay kit protocol (Promega Corp., Madison, Wis.). Briefly, assay medium was removed and cells were washed once with phosphate buffered saline (PBS). After the wash, 25 μl of lysis buffer was added to each well, and the plates were incubated for 15 minutes at room temperature. Fifty microliters of Luciferase Assay Substrate (Promega, Corp.) was added to each well and the plates were transferred to a Labsystems Lumiscan microtiter luminometer (Labsystems Inc., Morton Grove, Ill.). The amount of luminescence (relative light units, RLU) was determined following a 0.1 second/well integration of signal. Basal (uninduced) luciferase signal was subtracted from all measurements, and the luciferase signal induced by test samples was expressed as a percentage of the signal in the calcitonin and forskolin controls. Specificity of the luciferase induction for calcitonin receptor-positive cell lines was determined by comparing the percent control values in the calcitonin receptor-positive line (Hollex-1) to those observed in the calcitonin receptor-negative cell line (KZ10-20-48/Zem 228) and the PTH receptor-positive cell line (KZ10-20-48/PTH-20) described below. Samples inducing a signal over the basal level were selected for further characterization, see Table 1 for examples.

[2] = tested on: PTH-induced bone resorption in mouse calvariae; test: Calvarial assay: PTH-induced bone resorption, calcium release; settings: 1 nM PTH 1-34, 72 hours
Method: Calvaria from 4-day old neonatal CD-1 mice (pregnant mice received from Charles River Laboratories, Wilmington, Mass.) were trimmed with fine-tipped scissors to leave the parietal regions, including the sagittal suture. These trimmed bones were placed singly per well into 6-well cell culture cluster plates (Costar, Pleasanton, Calif.) with 1 ml/well of Dulbecco's […] Essential Medium, […] (DMEM, BioWhittaker, Walkersville, Md.) or Basal Eagle's Medium with Earle's salts (EMEM, Gibco/BRL, Grand Island, N.Y.) and 0.29 mg/ml L-glutamine, 1 mM sodium pyruvate, 15% heat-inactivated horse serum, and antibiotics (penicillin-G 50 μg/ml, streptomycin 50 μg/ml, and neomycin 100 μg/ml). Calvaria were rocked gently (RedRocker™, model PR50-115 V, Hoefer, San Francisco, Calif. or Labline Rocking Shaker, model 4635, Labline Instruments, Melrose Park, Ill.) at 37° C. in a 5% CO2 humidified incubator for 24 hours preincubation.
Following preincubation, medium was removed and replaced with 1.5 ml/well of growth medium containing 1 nM parathyroid hormone (PTH) 1-34 (Sigma) to stimulate bone resorption. For evaluation of the ability of calcitonin mimetics to inhibit PTH induced bone resorption, mimetic compounds in DMSO were added to the growth medium at concentrations ranging from 1-400 μg/ml (final assay concentration of DMSO less than or equal to 1%). In each experiment human calcitonin (0.02-2 nM, 0.2-2 nM preferred) was added to PTH treated bones as a positive control. […] All control wells contained a final assay concentration of DMSO equal to that present in calcitonin mimetic treated wells.
Five bones were included in each sample group. Bones were incubated for 72 hours following PTH addition to allow resorption of bone to occur. Observations were made of the general appearance, healthiness and number of cells. that migrate from the calvaria during the incubation as a possible indication of cell toxicity. Calvaria to be examined histologically were transferred to glass scintillation vials containing 10 ml of 10% neutral buffered formalin. […]

[3] = tested on: osteoclasts in mouse calvariae; test: Calvaria histology (osteoclast number and size, toxicity); settings: for Histology (bone destruction by PTH, Oc size and #): mouse calvariae treated with PTH
Text: To confirm the findings in the calvarial bone resorption assay employing calcium release from culture mouse calvariae, selected bones were fixed in 10% neutral buffered formalin and demineralized in 5% formic acid with 5% formalin. The bones were dehydrated through an ascending series of ethanol concentrations, infiltrated in glycol methacrylate, and embedded using a JB-4 embedding kit (PolySciences, Warrington, Pa.) (Liu, et al., J. Bone Mineral Res. 5:973-82, 1990). When necessary, an alternative embedding method (paraffin embedding) was used to speed up the embedding process. Cross sections of calvariae cut at 5 μm were obtained and stained for tartrate-resistant acid phosphatase (TRAP) activity and counterstained with methyl green and thionin for cell morphology (Liu, et al., ibid.). Osteoclasts were identified by TRAP stain, multinucleation, large cell size, and irregular cell shape. The number of osteoclasts were counted from endocranial and ectocranial bone surfaces and expressed as number/mm perimeter. The size of all the osteoclasts counted was also measured using a Bone Morphometry program (Liu, et al., ibid.; Bain, et al., J. Bone Miner. Res. 8:435-42, 1993). […] This PTH-induced increase was suppressed by treatment with human calcitonin.
Calcitonin mimetic compounds were evaluated in a similar fashion for their ability to suppress PTH-induced increases in osteoclast number and size (Table 2). Cell toxicity (or death) was also evaluated by the appearance of pyknotic nuclei in a small number of bone cells. With an increased level of toxicity, a further increase in the number of these pyknotic nuclei, detachment of cells from bone surfaces, and losses of cytoplasmic stain and cell boundaries were observed. The osteocytic space also appeared empty.

human PTH receptor = molecular target: T2, human PTH receptor (Homo sapiens, UniProt Q03431); test: CRE-luciferase induction in clone KZ10-20-48/PTH-20
T2 construct: expressed in transfected cells; host or cells: BHK570 clone KZ10-20-48 (KZ10-20-48/PTH-20)
T2 sequence (Q03431 27-593): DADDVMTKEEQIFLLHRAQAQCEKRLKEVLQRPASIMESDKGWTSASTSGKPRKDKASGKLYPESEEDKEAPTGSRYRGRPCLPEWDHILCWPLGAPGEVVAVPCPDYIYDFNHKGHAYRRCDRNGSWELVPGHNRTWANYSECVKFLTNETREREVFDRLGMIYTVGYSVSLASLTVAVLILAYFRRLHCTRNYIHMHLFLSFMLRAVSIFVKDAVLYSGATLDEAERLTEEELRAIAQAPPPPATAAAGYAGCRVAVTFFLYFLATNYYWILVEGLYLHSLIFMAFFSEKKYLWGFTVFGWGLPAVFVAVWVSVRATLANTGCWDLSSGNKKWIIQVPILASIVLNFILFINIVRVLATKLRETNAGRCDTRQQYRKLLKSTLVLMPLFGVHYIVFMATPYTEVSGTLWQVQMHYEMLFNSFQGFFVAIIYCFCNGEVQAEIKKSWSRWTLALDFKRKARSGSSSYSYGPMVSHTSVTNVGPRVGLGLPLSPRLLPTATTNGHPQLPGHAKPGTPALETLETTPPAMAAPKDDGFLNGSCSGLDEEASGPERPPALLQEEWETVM
Text: Test substances that appear to specifically elevate luciferase expression in CT-R positive cells but not CT-R negative cells were subjected to an additional specificity check, i.e. their inability to activate other members of the G-protein coupled receptor family. The parathyroid hormone (PTH) receptor is another member of the G-protein coupled receptor family that transduces signal through adenylate cyclase mediated elevation of cAMP.

| Compound | Luciferase induction (% of maximum luciferase induction produced by CT, 100 nM) ([1]; crude compound 6.25 μg/ml) [%] | Luciferase induction (% of maximum luciferase induction produced by CT, 100 nM) ([1]; crude compound 12.5 μg/ml) [%] | Luciferase induction (% of maximum luciferase induction produced by CT, 100 nM) ([1]; crude compound 25 μg/ml) [%] | Luciferase induction (% of maximum luciferase induction produced by CT, 100 nM) ([1]; crude compound 50 μg/ml) [%] | Release of PTH Induced Ca++ IC50 [2] [µg/mL] | Histology (bone destruction by PTH, Oc size and #) [3] | Luciferase induction (% of maximum luciferase induction produced by CT, 100 nM) ([1]; crude compound 3.125 μg/ml) [%] | EC50 (human PTH receptor) [nM] | PTH-induced increase in number and size of osteoclasts ([3]; mouse calvariae, PTH 1-34 treatment) |
| --- | --- | --- | --- | --- | --- | --- | --- | --- | --- |
| C=CCNC(=O)[C@@H](Cc1ccc(F)cc1)NC(=O)Nc1cc(C(C)(C)C)ccc1C(C)(C)C [628-033] | 14.71 | 27.68 | 31.63 | 33.62 | 30 | Decreases in bone | – | – | – |
| C=CCNC(=O)[C@@H](Cc1ccc2ccccc2c1)NC(=O)Nc1cc(C(C)(C)C)ccc1C(C)(C)C [628-035] | 34.84 | 43.25 | 46.43 | 52.27 | 23 | Decreases in bone | – | – | – |
| CC(C)(C)c1ccc(C(C)(C)C)c(NC(=O)N[C@H](Cc2ccc(I)cc2)C(=O)NCc2ccc3ccccc3c2)c1 [628-054] | 27.05 | 42.54 | 47.47 | 54.86 | – | – | 10.73 | – | – |
| CC(C)(C)c1ccc(C(C)(C)C)c(NC(=O)N[C@H](Cc2ccc3ccccc3c2)C(=O)NCc2ccc3ccccc3c2)c1 [628-055] | 24.81 | 35.48 | 43.3 | 48.69 | 14 | Decreases in bone | – | – | – |
| CC(C)(C)c1ccc(C(C)(C)C)c(NC(=O)N[C@@H](C(=O)NCc2ccc3ccccc3c2)c2ccccc2)c1 [628-056] | 14.7 | 28.6 | 35.6 | 37.1 | – | – | 4.2 | – | – |
| C=C[C@@]1(C)CC(=O)[C@]2(O)[C@@]3(C)[C@@H](O)CCC(C)(C)[C@@H]3[C@H](O)[C@H](OC(C)=O)[C@@]2(C)O1 [forskolin] | – | – | – | – | – | – | – | 2000 | – |
| CC[C@H](C)[C@H](NC(=O)[C@H](C)NC(=O)[C@@H](NC(=O)[C@H](CCC(N)=O)NC(=O)[C@@H]1CCCN1C(=O)[C@H](Cc1ccccc1)NC(=O)[C@@H](NC(=O)[C@H](Cc1c[nH]cn1)NC(=O)[C@H](Cc1ccccc1)NC(=O)[C@H](CCCCN)NC(=O)[C@H](CC(N)=O)NC(=O)[C@H](Cc1ccccc1)NC(=O)[C@H](CC(=O)O)NC(=O)[C@H](CCC(N)=O)NC(=O)[C@@H](NC(=O)[C@H](Cc1ccc(O)cc1)NC(=O)[C@@H](NC(=O)CNC(=O)[C@H](CC(C)C)NC(=O)[C@H](CCSC)NC(=O)[C@@H]1CSSC[C@H](N)C(=O)NCC(=O)N[C@@H](CC(N)=O)C(=O)N[C@@H](CC(C)C)C(=O)N[C@@H](CO)C(=O)N[C@@H]([C@@H](C)O)C(=O)N1)[C@@H](C)O)[C@@H](C)O)[C@@H](C)O)[C@@H](C)O)C(=O)NCC(=O)N[C@H](C(=O)NCC(=O)N[C@@H](C)C(=O)N1CCC[C@H]1C(N)=O)C(C)C [human calcitonin, reference compound] | – | – | – | – | – | – | – | – | suppressed |
